In PubChem BioAssay (NCI) one finds TGI data, which are given here for ten compounds.

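Test compounds were applied to cells in 96-well plates for 48 hours at 5 doses. TGI denotes the concentration required for complete inhibition of growth.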

Among the test systems are A498 renal; ACHN renal; BT-549 breast; CAKI-1 renal; HCT-116 colon; HCT-15 colon; HOP-92 NSCLC; HS 578T breast; MDA-N; NCI-H226 lung; NCI-H522 lung; SK-MEL-28 melanoma; SK-MEL-5 melanoma; UO-31 renal.
Holding throughout (assay): inhibition of tumour cell growth, NCI panel, 48 h

Regarding `O=C1OC2c3ccccc3C(=O)C2(c2ccccc2)N1c1ccccc1` (stereo not given), the TGI in the test with A498 renal, in the test on ACHN renal, in the test on BT-549 breast, with CAKI-1 renal, in the test on HCT-116 colon and with HCT-15 colon was more than 200 µM in each case. Besides, the TGI in the test on HOP-92 NSCLC, in the test on HS 578T breast, in the test on MDA-N, in the test with NCI-H226 lung, in the test with NCI-H522 lung and in the test on SK-MEL-28 melanoma was more than 200 µM in each case. Besides, the TGI with SK-MEL-5 melanoma and with UO-31 renal was more than 200 µM each time.
On to `CN(C)CS/C(N)=N\C(O)C(Cl)(Cl)Cl` (stereo not given), for which the TGI with A498 renal, in the test with ACHN renal, in the test with BT-549 breast, with CAKI-1 renal, in the test with HCT-116 colon and with HCT-15 colon was more than 100 µM throughout. The TGI with HOP-92 NSCLC, in the test on HS 578T breast, in the test with MDA-N, with NCI-H226 lung, with NCI-H522 lung and with SK-MEL-28 melanoma was more than 100 µM each time. In addition, the TGI in the test on SK-MEL-5 melanoma and in the test on UO-31 renal was more than 100 µM each time.
Take `CC(=O)[O-].[Ni].c1ccc(/C(=N\Nc2ccccn2)c2ccccn2)cc1`: the TGI in the test on A498 renal amounted to 36.3 µM; in the test with ACHN renal, 53 µM; in the test on BT-549 breast, 45.1 µM; with CAKI-1 renal it was 39.3 µM; in the test with HCT-116 colon, 18 µM; with HCT-15 colon, 41.1 µM. In addition, the TGI is 22.3 µM in the test on HOP-92 NSCLC; more than 100 µM with HS 578T breast; 21.1 µM with MDA-N; 47.6 µM with NCI-H226 lung; 20.9 µM with NCI-H522 lung; 18.8 µM in the test with SK-MEL-28 melanoma. In addition, the TGI in the test on SK-MEL-5 melanoma came to 18.3 µM; with UO-31 renal it was 18.8 µM.
Turning to `O=C1c2ccccc2C(=O)c2c1oc(=O)c1ccccc21`, the TGI with A498 renal was more than 25 µM; in the test on ACHN renal it was 11.1 µM; in the test on BT-549 breast, 9.2 µM; with CAKI-1 renal, 15.5 µM; in the test with HCT-116 colon, 4.27 µM; in the test with HCT-15 colon it was 7.5 µM. Moreover, the TGI in the test with HOP-92 NSCLC turned out to be 11.9 µM; with HS 578T breast it was 23.2 µM; in the test on MDA-N it was 5.7 µM; with NCI-H226 lung, 21.2 µM; in the test with NCI-H522 lung it was 9.73 µM; with SK-MEL-28 melanoma it was 17 µM. The TGI with SK-MEL-5 melanoma was 4.51 µM; with UO-31 renal it was 11.4 µM.
On to `COc1ccc(-c2oc3cc(OC)c(OC)c(OC)c3c(=O)c2OC)cc1OC`, for which the TGI in the test on A498 renal, with ACHN renal, in the test with BT-549 breast, in the test with CAKI-1 renal, in the test with HCT-116 colon and in the test on HCT-15 colon was more than 100 µM in each case. Moreover, the TGI with HOP-92 NSCLC, in the test on HS 578T breast, in the test on MDA-N, in the test on NCI-H226 lung, with NCI-H522 lung and with SK-MEL-28 melanoma was more than 100 µM in each case. Also, the TGI in the test on SK-MEL-5 melanoma and in the test on UO-31 renal was more than 100 µM each time.
Consider `NC1=NN(c2ccccc2)C2(c3ccncc3C(=O)O)C1C(N)=NN2c1ccccc1` (stereo not given), for which the TGI in the test with A498 renal, in the test on ACHN renal, in the test with BT-549 breast, with CAKI-1 renal, in the test with HCT-116 colon and with HCT-15 colon was more than 100 µM throughout. Further, the TGI with HOP-92 NSCLC, with HS 578T breast, in the test on MDA-N, with NCI-H226 lung, with NCI-H522 lung and in the test with SK-MEL-28 melanoma was more than 100 µM throughout. For the same compound, the TGI in the test on SK-MEL-5 melanoma and with UO-31 renal was more than 100 µM each time.
Turning to `O=C1C=CC[C@H](/C=C/C[C@@H](O)C[C@H](O)/C=C/c2ccccc2)O1`, the TGI stood at 27 µM in the test with A498 renal; 27.8 µM in the test with ACHN renal; 23.6 µM with BT-549 breast; 19.9 µM in the test on CAKI-1 renal; 17.4 µM in the test with HCT-116 colon; 23 µM in the test on HCT-15 colon. In addition, the TGI was found to be 13.7 µM in the test with HOP-92 NSCLC; 60.2 µM in the test on HS 578T breast; 24.9 µM in the test on MDA-N; 28.7 µM in the test with NCI-H226 lung; 18 µM with NCI-H522 lung; 30.8 µM in the test on SK-MEL-28 melanoma. For the same compound, the TGI with SK-MEL-5 melanoma was 27.4 µM; with UO-31 renal, 25.9 µM.
As to `COc1cc(-c2c3c([nH]c(=O)c2C#N)-c2cc([N+](=O)[O-])ccc2CCC3)cc(OC)c1OC`, the TGI with A498 renal was 66.9 µM; with ACHN renal it was 70.6 µM; in the test on BT-549 breast, 61.3 µM; with CAKI-1 renal, 87.9 µM; in the test with HCT-116 colon, 37.7 µM; with HCT-15 colon it was more than 100 µM. For the same compound, the TGI was more than 100 µM with HOP-92 NSCLC; 73.3 µM in the test on HS 578T breast; 55 µM with MDA-N; 89 µM in the test on NCI-H226 lung; 59 µM in the test on NCI-H522 lung; more than 100 µM with SK-MEL-28 melanoma. Moreover, the figures for the TGI in the test with SK-MEL-5 melanoma and in the test with UO-31 renal were 26.7 µM and 75.1 µM, respectively.
For `COc1cc(S(=O)(=O)Nc2ccc(-c3csc(N4C(=O)C(C)SC4c4ccccc4O)n3)cc2)ccc1Cl` (stereo not given), the TGI in the test on A498 renal, in the test on ACHN renal, with BT-549 breast, in the test with CAKI-1 renal, in the test on HCT-116 colon and with HCT-15 colon was more than 100 µM in each case. Further, the TGI in the test on HOP-92 NSCLC was more than 100 µM; with HS 578T breast, 90.4 µM; in the test with MDA-N, more than 100 µM; with NCI-H226 lung it was more than 100 µM; in the test with NCI-H522 lung it was 37 µM; in the test with SK-MEL-28 melanoma, 55.6 µM. In addition, the TGI with SK-MEL-5 melanoma and in the test with UO-31 renal was more than 100 µM each time.
`COc1ccc(C(=O)Cn2c(C(C)=O)nc3ccccc32)cc1`: the TGI in the test on A498 renal, in the test on ACHN renal, with BT-549 breast, with CAKI-1 renal, with HCT-116 colon and with HCT-15 colon was more than 100 µM in each case. Further, the TGI in the test with HOP-92 NSCLC, with HS 578T breast, in the test on MDA-N, with NCI-H226 lung, in the test on NCI-H522 lung and with SK-MEL-28 melanoma was more than 100 µM each time. Besides, the TGI in the test with SK-MEL-5 melanoma was more than 100 µM; in the test with UO-31 renal, more than 57.3 µM.
